Data taken from publication PMC6594577, “Identifying small molecule probes of ENTPD5 through high throughput screening” (PLoS ONE, 2019).

Tests used:
I.ENTPD5 = target: T1, I.ENTPD5 (Homo sapiens, UniProt O75356); assay: Malachite Green (MG) assay for free phosphate; format: biochemical
T1 construct: His8 (C); made in house; host or cells: Hi-5 insect cells (baculovirus amplified in SF9)
T1 sequence (O75356 44-428): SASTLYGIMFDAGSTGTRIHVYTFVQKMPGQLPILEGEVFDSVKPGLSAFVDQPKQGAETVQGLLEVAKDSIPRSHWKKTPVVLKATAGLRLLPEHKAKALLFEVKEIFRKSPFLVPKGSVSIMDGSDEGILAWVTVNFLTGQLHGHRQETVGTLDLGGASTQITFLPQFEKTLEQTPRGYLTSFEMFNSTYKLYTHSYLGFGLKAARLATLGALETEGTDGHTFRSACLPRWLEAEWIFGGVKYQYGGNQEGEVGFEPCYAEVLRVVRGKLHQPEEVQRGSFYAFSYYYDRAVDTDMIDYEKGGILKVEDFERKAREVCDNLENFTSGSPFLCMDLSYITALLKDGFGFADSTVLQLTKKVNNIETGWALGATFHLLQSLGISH
Protocol: Malachite Green (MG) assay for free phosphate was used to directly test ENTPD5 activity. Standard curves for each preparation of malachite green were generated using known amounts of free phosphate. Reactions were carried out at room temperature in 1-mL cuvettes and OD 630 nm measurements were performed on a Nanodrop 2000c. ENTPD5 assays were initiated by adding UDP (100 μM final concentration) to a cuvette containing 800 μL of ENTPD5 (10 ng) in reaction buffer (250 mM NaCl, 5 mM MgCl2, 25 mM Tris-HCl pH 8.5). After 5 minutes, the reaction was quenched with 200 μL of MG buffer (13.1% (v/v) Concentrated sulfuric acid, 2.64 mM malachite green, 1.4% (w/v) ammonium molybdate, and 0.17% (v/v) Tween 20) and mixed by pipet. The OD 630 nm was measured after an additional 5-minute incubation. IC50 values were calculated by GraphPad Prism 6 using sigmoidal interpolation model with 95% confidence intervals. Using I.ENTPD5, the five hits compounds were validated in the malachite green (MG) assay, which directly measures free phosphate, a product of ENTPD5 activity.

[1] = target: T2, B.ENTPD5 (human ENTPD5 44–428) (Homo sapiens, UniProt O75356); assay: coupled enzyme (ENTPD5/UMPK/luciferase) HTS assay; format: biochemical; conditions: for inhibition at 20 µM: HTS, 20 μM compound, duplicate, read-out: Percent ENTPD5 inhibition; for IC50: compounds at 5, 10, 20 and 40 μM, coupled enzyme HTS assay
T2 construct: bacterial codon-optimized human ENTPD5 44–428 (B.ENTPD5); His8 (C); made in house; host or cells: E. coli C41(DE3)
T2 sequence (O75356 44-428): T1 sequence (O75356 44-428)
Protocol: Stocks of purified B.ENTPD5, UMPK, and luciferase were diluted to 0.4 mg/mL, 1.2 mg/mL, 4.5 mg/mL, respectively, in 250 mM NaCl, 25 mM Tris-HCl pH 8.5, 5 mM MgCl2, 0.1 mg/mL BSA, and 5 mM DTT and flash frozen. To prepare enzyme mix solution for HTS, ENTPD5 (1 ng/μL final concentration) and UMPK (3.5 ng/μL) were diluted in HTS buffer (250 mM NaCl, 25 mM Tris-HCl pH 7.7, 5 mM MgCl2, 5 mM DTT, 0.1 mg/mL BSA, and 0.01% Triton X-100). An ENTPD5 null mix was made as above without ENTPD5 to provide maximal signal mimicking 100% inhibition. Substrate mix solution consisted of ATP (625 μM) and UDP (150 μM) in HTS buffer. Developer solution consisted of Luciferase (50 ng/μL) and D-luciferin (1.6 mM) in HTS buffer. All solutions were stored at 4°C, and equilibrated to room temperature prior to screening. All steps of ENTPD5 HTS were performed at room temperature in duplicate 384-well plates. For each run, 40 μL of enzyme solution (or ENTPD5 null mix) was added to each well of a 384 well plate. 0.1 μL of 10 mM compound (in 100% DMSO) from a 25,000 subset of the Chembridge DiverSet library or DMSO alone were added to wells by pin tool (V&P Scientific). Following a 10-minute incubation, the reaction was initiated with 10 μL of substrate mix (final concentrations: 40 ng/50 μL ENTPD5, 140 ng/50 μL UMPK, 125 μM ATP, 30 μM UDP, 20 μM test compound). Assay plates were shaken at 1500 rpm for 30 seconds and then incubated for 1h. Following incubation, 10 μL of developer solution was added to each well (final concentrations: 500 ng/60 μL luciferase, 266 μM D-luciferin). The plate was shaken for 30 seconds and incubated for 30 minutes. Luminescence readings were performed on a Tecan Infinite […] with automatic attenuation settings and 100 ms integration time. Hits and hit analogs were (re)purchased from Chembridge for SAR studies. Compounds were assayed at 5 μM, 10 μM, 20 μM, and 40 μM using the assay described above. To discover ENTPD5 inhibitors, a coupled enzyme assay was developed for high-throughput screening. The ENTPD5 reaction (UDP ➔ UMP + Pi) was coupled with uridine monophosphate kinase's (UMPK) reaction with UMP (UMP + ATP ➔ UDP + ADP) to create a futile catalytic cycle consuming ATP (Fig 3A). After one hour, the residual ATP was measured with firefly luciferase. UMPK concentrations were chosen to ensure ENTPD5, not UMPK, was rate-limiting. The ATP concentration was chosen to maximize signal with no ENTPD5 present, and the reaction time was optimized to remain in the linear range of the assay. Initial UDP concentration was chosen to allow for multiple turnover events on a single molecule in the cycle. Due to the availability of higher yields of the bacterially produced enzyme, B.ENTPD5 was used for HTS and subsequent structure activity relationship studies. 21,000 compounds were screened in duplicate at 20 μM. The average Z' value of the 132-plate screen was 0.73, indicating a robust assay. Five compounds producing >25% reproducible inhibition of ENTPD5 activity were selected for further analysis (0.02% hit rate) (Fig 3B and 3C).

LNCaP cells = assay: Growth inhibition assay, LNCaP; format: cell-based; conditions: Homo sapiens, 48 h, 48h treatment, cell count normalized to DMSO
Protocol: LNCaP (ATCC CFL-1740), DU-145 (ATCC HTB-81), and PC3 (ATCC CRL-1435) cell lines were cultivated in a humid atmosphere (5% CO2, 37°C) using RPMI 1640 with L-glutamine (10-040-CV Corning) media supplemented with 10% FBS (SH30910.03 Hyclone) and 1x penicillin-streptomycin solution (Invitrogen). RWPE-1 (ATCC CRL-11609) was cultivated in a humid atmosphere (5% CO2, 37°C) using Keratinocyte Serum Free Medium (K-SFM Kit 17005–042 GIBCO) supplemented with bovine pituitary extract, epidermal growth factor (provided with K-SFM Kit), and 1x penicillin-streptomycin solution (Invitrogen). All cell lines were analyzed by STR (Short Tandem Repeat) and confirmed to match to corresponding STR profile data from the Global Bioresource Center ATCC or ExPASy Cellosaurus database. All cell lines were verified to be mycoplasma free.
5,000 cells were plated on day 0 in a 96-well plate. On day 1, before treatment, each well was imaged and direct cell counting was performed using a Celigo S (Nexcelom) imager and automatic cell counting software provided with the instrument. Compounds were added to final concentrations of 0.15 μM- 20 μM. 48 hours after treatment, wells were re-imaged and counted using the pre-treatment counting procedure. Growth was reported as the fold increase over the baseline measurement and normalized to DMSO controls. Experiments were performed in triplicate, in three separate experiments. […]

[2] = tested on: O-glycan levels in LNCaP cells; assay: Western blot for total O-glycosylation, LNCaP; format: cell-based; conditions: 10 μM, 24h, immunoblot
Protocol: (§1) LNCaP, DU145, PC3, and RWPE-1 cells were treated with 10 μM compound or DMSO control. 24h post-treatment, cells were washed with ice cold PBS, scraped, pelleted and stored at -80°C until use. Frozen cell pellets were lysed with lysis buffer consisting of 20 mM HEPES pH. 7.4, 150 mM NaCl, 1% Triton X-100, 1 mM EGTA, 1 mM EDTA, 10 mM sodium pyrophosphate, 100 mM NaF, 5 mM iodoacetic acid, 20 nM okadaic acid, 0.2 mM phenylmethylsulfonyl flouride (PMSF), and complete protease inhibitor cocktail tablets (Roche Diagnostics). Samples containing 50 μg of protein were suspended in SDS loading buffer, separated on 4–12% SDS polyacrylamide gels (GenScript #M41215) and electrotransferred to PVDF membranes (Millipore Immobilon-FL #IPFL00010). Precision Plus Protein Standards all blue (Bio-Rad 161–0373) were included as molecular weight markers. Immunoblotting was performed using standard methods, with TBS-T and TBS-T with 5% BSA as the wash and blocking/primary antibody dilution solutions, respectively. Total protein was measured with Ponceau-S staining prior to probing with antibodies. Membranes were incubated overnight at 4°C with primary antibodies diluted 1:1000 unless noted otherwise. […] Western blot quantification was normalized to total protein levels and analyzed in ImageStudio (LI-COR).

[3] = tested on: O-glycan levels in DU145 cells; assay: Western blot for total O-glycosylation, DU145; format: cell-based; conditions: DU145, 10 μM, 24h, immunoblot
Protocol: as §1

[4] = substrate UDP, purified I.ENTPD5, Michaelis-Menten

| Compound | inhibition at 20 µM [1] [%] | IC50 [1] [µM] | further results |
| --- | --- | --- | --- |
| O=S(=O)(Nc1ccc(O)c(-c2c(O)ccc3ccccc23)c1)c1ccc(Cl)cc1 [Compound 2a] | 35 | 6.7 ± 0.7 | inhibition of I.ENTPD5 (hit validation) (I.ENTPD5; MG assay): dose-dependent inhibition |
| Cc1cc(C)c(C)c(S(=O)(=O)Nc2ccc(O)c(-c3c(O)ccc4ccccc34)c2)c1C [Compound 2b] | 48 | 3.7 ± 0.4 | inhibition of I.ENTPD5 (hit validation) (I.ENTPD5; MG assay): dose-dependent inhibition |
| O=S(=O)(Nc1ccc(O)c(-c2c(O)ccc3ccccc23)c1)c1ccccc1 [Compound 2c] |  | 6.8 ± 1 |  |
| Cc1ccc(S(=O)(=O)Nc2ccc(O)c(-c3c(O)ccc4ccccc34)c2)cc1 [Compound 2d] |  | 7.1 ± 1.6 |  |
| CCc1ccc(S(=O)(=O)Nc2ccc(O)c(-c3c(O)ccc4ccccc34)c2)cc1 [Compound 2e] |  | 4.3 ± 2.2 |  |
| CC(C)(C)c1ccc(S(=O)(=O)Nc2ccc(O)c(-c3c(O)ccc4ccccc34)c2)cc1 [Compound 2f] |  |  | IC50 (I.ENTPD5; MG assay, expanded concentration range, 100 μM UDP): 1.54 µM; EC50 (LNCaP cells): > 10 µM; O-glycan level [2]: inability of compound 2f to reduce O-glycan levels; O-glycan level [3]: inability of compound 2f to reduce O-glycan levels |
| O=S(=O)(Nc1ccc(O)c(-c2c(O)ccc3ccccc23)c1)c1ccc(Br)cc1 [Compound 2g] |  | 8.3 ± 1 |  |
| Cc1ccc(S(=O)(=O)Nc2cc(-c3c(O)ccc4ccccc34)c(O)c3ccccc23)cc1 [Compound 2h] |  | > 100 |  |
| O=S(=O)(Nc1cc(-c2c(O)ccc3ccccc23)c(O)c2ccccc12)c1ccc(Cl)cc1 [Compound 2i] |  | > 100 |  |
| CCC(=O)N1c2ccccc2C(N(C(=O)c2ccccc2)c2ccccc2)CC1C (stereo not drawn) [Compound 3] | 47 |  |  |
| O=C1NC(c2ccccc2OCc2ccccc2)Nc2ccccc21 (stereo not drawn) [Compound 4] | 28 |  | inhibition of I.ENTPD5 (hit validation) (I.ENTPD5; MG assay): dose-dependent inhibition |
| O=c1ccn([C@@H]2O[C@H](COP(=O)(O)OP(=O)(O)O)[C@@H](O)[C@H]2O)c(=O)[nH]1 [UDP, reference compound] |  |  | Km (I.ENTPD5; [4]): 480 ± 111 µM; kcat (I.ENTPD5; [4]): 783 ± 68 s⁻¹ |
